Results taken from ChEMBL document CHEMBL3885861, “Open TG-GATES”.

Organism: Rattus norvegicus
Assay: Open TG-GATES - Regimen: Daily Repeat
Assay type: toxicity, organism-based, Sprague-Dawley
Set-up: regimen Daily Repeat, gender Male, age 6 weeks
Settings: in vivo, po, 0 mg/kg, route gavage, dose level Control; for APTT / Bas / Eos / Fbg / Hb / Ht / Lym / MCH / MCHC / MCV / Mono / Neu / PT / Plat / RBC / Ret / WBC: tissue Blood; for KIDNEY_L / KIDNEY_R / KIDNEY_TOTAL: tissue Kidney; for LIVER: tissue Liver; for A/G / ALP / ALT / AST / BUN / CRE / Ca / Cl / DBIL / GLC / IP / LDH / Na / PL / RALB / TBIL / TC / TG / TP / gamma-GTP: tissue Plasma

## NC(N)=Nc1nc(CSCCC(N)=NS(N)(=O)=O)cs1 [FAMOTIDINE]
72 h, time 3 day
  TERMINAL_BW: 227 g
  APTT: 19.5 s
  Bas: 0%
  Eos: 1%
  Fbg: 221.4 mg/dL
  Hb: 13.5 g/dL
  Ht: 37.4%
  Lym: 73.8%
  MCH: 22.4 pg
  MCHC: 36.1%
  MCV: 61.9 fL
  Mono: 3.2%
  Neu: 20.6%
  PT: 11.8 s
  Plat: 125.1 x10_4/uL
  RBC: 604.6 x10_4/ul
  Ret: 5.7%
  WBC: 75.1 x10_2/uL
  KIDNEY_L: 1 g
  KIDNEY_R: 1 g
  KIDNEY_TOTAL: 2 g
  LIVER: 10.4 g
  A/G: 1.5
  ALP: 999.6 IU/L
  ALT: 31.4 IU/L
  AST: 64.2 IU/L
  BUN: 13.8 mg/dL
  CRE: 0.4 mg/dL
  Ca: 10.7 mg/dL
  Cl: 103.2 meq/L
  DBIL: 0.086 mg/dL
  GLC: 190.6 mg/dL
  IP: 7.2 mg/dL
  LDH: 194 IU/L
  Na: 139.8 meq/L
  PL: 139.6 mg/dL
  RALB: 3.4 g/dL
  TBIL: 0.1 mg/dL
  TC: 76.6 mg/dL
  TG: 78.4 mg/dL
  TP: 5.5 g/dL
  gamma-GTP: 1 IU/L
[…], time 7 day
  TERMINAL_BW: 257.4 g
  APTT: 20.1 s
  Bas: 0%
  Eos: 0.8%
  Fbg: 230 mg/dL
  Hb: 13.7 g/dL
  Ht: 38.3%
  Lym: 80.4%
  MCH: 22.2 pg
  MCHC: 35.8%
  MCV: 62 fL
  Mono: 2.4%
  Neu: 14.8%
  PT: 11.8 s
  Plat: 126.2 x10_4/uL
  RBC: 618.2 x10_4/ul
  Ret: 5%
  WBC: 82.2 x10_2/uL
  KIDNEY_L: 1.1 g
  KIDNEY_R: 1.1 g
  KIDNEY_TOTAL: 2.2 g
  LIVER: 12.2 g
  A/G: 1.5
  ALP: 1109 IU/L
  ALT: 39.6 IU/L
  AST: 71.4 IU/L
  BUN: 16.6 mg/dL
  CRE: 0.4 mg/dL
  Ca: 10.7 mg/dL
  Cl: 102.8 meq/L
  DBIL: 0.094 mg/dL
  GLC: 200.6 mg/dL
  IP: 7.5 mg/dL
  LDH: 176.2 IU/L
  Na: 140.6 meq/L
  PL: 156.6 mg/dL
  RALB: 3.5 g/dL
  TBIL: 0.2 mg/dL
  TC: 78 mg/dL
  TG: 101.8 mg/dL
  TP: 5.7 g/dL
  gamma-GTP: 0.8 IU/L
[…], time 14 day
  TERMINAL_BW: 314.4 g
  APTT: 22.3 s
  Bas: 0%
  Eos: 1%
  Fbg: 229.4 mg/dL
  Hb: 14.3 g/dL
  Ht: 41.9%
  Lym: 81.8%
  MCH: 20.8 pg
  MCHC: 34.1%
  MCV: 60.9 fL
  Mono: 1.6%
  Neu: 14.2%
  PT: 12.3 s
  Plat: 118.4 x10_4/uL
  RBC: 689 x10_4/ul
  Ret: 4.5%
  WBC: 112.3 x10_2/uL
  KIDNEY_L: 1.3 g
  KIDNEY_R: 1.2 g
  KIDNEY_TOTAL: 2.5 g
  LIVER: 14 g
  A/G: 1.5
  ALP: 794.6 IU/L
  ALT: 33.4 IU/L
  AST: 62 IU/L
  BUN: 15.8 mg/dL
  CRE: 0.5 mg/dL
  Ca: 10.8 mg/dL
  Cl: 103.2 meq/L
  DBIL: 0.096 mg/dL
  GLC: 208 mg/dL
  IP: 7.2 mg/dL
  LDH: 153.2 IU/L
  Na: 140.4 meq/L
  PL: 146.6 mg/dL
  RALB: 3.4 g/dL
  TBIL: 0.2 mg/dL
  TC: 75 mg/dL
  TG: 96.4 mg/dL
  TP: 5.7 g/dL
  gamma-GTP: 1.4 IU/L
[…], time 28 day
  TERMINAL_BW: 376 g
  APTT: 21.3 s
  Bas: 0%
  Eos: 1%
  Fbg: 233.6 mg/dL
  Hb: 15.4 g/dL
  Ht: 43.5%
  Lym: 80.8%
  MCH: 20 pg
  MCHC: 35.3%
  MCV: 56.6 fL
  Mono: 2.2%
  Neu: 14.6%
  PT: 12.2 s
  Plat: 98.4 x10_4/uL
  RBC: 769 x10_4/ul
  Ret: 2.3%
  WBC: 84.1 x10_2/uL
  KIDNEY_L: 1.4 g
  KIDNEY_R: 1.4 g
  KIDNEY_TOTAL: 2.8 g
  LIVER: 15.1 g
  A/G: 1.3
  ALP: 664.6 IU/L
  ALT: 32.4 IU/L
  AST: 59 IU/L
  BUN: 18.6 mg/dL
  CRE: 0.6 mg/dL
  Ca: 10.2 mg/dL
  Cl: 103.6 meq/L
  DBIL: 0.07 mg/dL
  GLC: 217.4 mg/dL
  IP: 6.7 mg/dL
  LDH: 123 IU/L
  Na: 141 meq/L
  PL: 141.8 mg/dL
  RALB: 3.5 g/dL
  TBIL: 0.1 mg/dL
  TC: 74.6 mg/dL
  TG: 82.8 mg/dL
  TP: 6.1 g/dL
  gamma-GTP: 1 IU/L
